# Key:
# [1] = Microsomal stability in monkey liver microsomes assessed as elimination half life pretreated with compound upto 60 mins followed by NADPH addition and measured after 60 mins by LC/MS analysis; format: ADME, Macaca mulatta, Microsome; settings: rhesus monkey, time < 120 min, read-out: beta t1/2
# [2] = Microsomal stability in mouse liver microsomes assessed as elimination half life pretreated with compound upto 60 mins followed by NADPH addition and measured after 60 mins by LC/MS analysis; format: ADME, Microsome; settings: liver microsomes, time < 120 min, read-out: beta t1/2
# [3] = Microsomal stability in mouse liver microsomes assessed as intrinsic clearance pretreated with compound upto 60 mins followed by NADPH addition and measured after 60 mins by LC/MS analysis; format: ADME, Microsome; settings: time < 120 min, read-out: CLH
# [4] = Microsomal stability in human liver microsomes assessed as parent compound remaining pretreated with compound upto 60 mins followed by NADPH addition and measured after 60 mins by LC/MS analysis; format: ADME, Microsome; settings: liver microsomes, time < 120 min, read-out: Stability
# [5] = Microsomal stability in monkey liver microsomes assessed as parent compound remaining pretreated with compound upto 60 mins followed by NADPH addition and measured after 60 mins by LC/MS analysis; format: ADME, Macaca mulatta, Microsome; settings: rhesus monkey, time < 120 min, read-out: Stability
# [6] = Microsomal stability in mouse liver microsomes assessed as parent compound remaining pretreated with compound upto 60 mins followed by NADPH addition and measured after 60 mins by LC/MS analysis; format: ADME, Microsome; settings: liver microsomes, time < 120 min, read-out: Stability
# [7] = Stability in human plasma assessed as parent compound remaining at 37 degreeC measured upto 60 mins by HPLC analysis; format: ADME, cell-free; settings: read-out: Stability
# [8] = Stability in dog plasma assessed as parent compound remaining at 37 degreeC measured upto 60 mins by HPLC analysis; format: ADME, cell-free, Canis lupus familiaris; settings: read-out: Stability
# [9] = Stability in rat plasma assessed as parent compound remaining at 37 degreeC measured upto 60 mins by HPLC analysis; format: ADME, cell-free; settings: read-out: Stability
# [10] = Stability in mouse plasma assessed as parent compound remaining at 37 degreeC measured upto 60 mins by HPLC analysis; format: ADME, cell-free; settings: read-out: Stability
# [11] = Stability in mouse plasma assessed as parent compound remaining at 25 degreeC measured upto 60 mins by HPLC analysis; format: ADME, cell-free
# [12] = Plasma protein binding in rat incubated for 6 hrs by LC-MS/MS analysis; format: ADME, cell-free; settings: read-out: PPB (converted)
# [13] = Plasma protein binding in mouse incubated for 6 hrs by LC-MS/MS analysis; format: ADME, cell-free; settings: read-out: PPB (converted)
# [14] = Elimination half life in Sprague-Dawley rat at 1 mg/kg, iv measured upto 24 hrs by LC-MS analysis; format: ADME, organism-based; settings: in vivo, read-out: beta t1/2 (converted)
# [15] = Clearance in Sprague-Dawley rat at 1 mg/kg, iv measured upto 24 hrs by LC-MS analysis; format: ADME, organism-based; settings: in vivo
# [16] = Elimination half life in Sprague-Dawley rat at 10 mg/kg, IG measured upto 24 hrs by LC-MS analysis; format: ADME, organism-based; settings: in vivo, po, read-out: beta t1/2 (converted)
# [17] = Tmax in Sprague-Dawley rat at 10 mg/kg, IG measured upto 24 hrs by LC-MS analysis; format: ADME, organism-based; settings: in vivo, po
# [18] = AUC (0 to t) in Sprague-Dawley rat at 10 mg/kg, IG measured upto 24 hrs by LC-MS analysis; format: ADME, organism-based; settings: in vivo, po
# [19] = AUC (0 to t) in ICR mouse at 1 mg/kg, iv measured upto 24 hrs by LC-MS analysis; format: ADME, organism-based; settings: in vivo
# [20] = Volume of distribution at steady state in ICR mouse at 1 mg/kg, iv measured upto 24 hrs by LC-MS analysis; format: ADME, organism-based; settings: in vivo, read-out: Vdss
# [21] = Half life in ICR mouse at 10 mg/kg, IG measured upto 24 hrs by LC-MS analysis; format: ADME, organism-based; settings: in vivo, po
# [22] = Cmax in ICR mouse at 10 mg/kg, IG measured upto 24 hrs by LC-MS analysis; format: ADME, organism-based; settings: in vivo, po
# [23] = AUC (0 to t) in ICR mouse at 10 mg/kg, IG measured upto 24 hrs by LC-MS analysis; format: ADME, organism-based; settings: in vivo, po
# [24] = Cytotoxicity against human HepG2 cells incubated for 48 hrs by MTT assay; format: toxicity, cell-based
# [25] = target: T1, Cytochrome P450 1A2 (Homo sapiens, UniProt P05177); assay: Inhibition of CYP1A2 in human liver microsomes with alpha-naphthoflavone as reference inhibitor preincubated with compound for 5 mins followed by substrate addition and measured after 120 mins in presence of NADPH by LC-MS/MS analysis; format: ADME, Microsome
# T1 sequence (P05177 whole entry): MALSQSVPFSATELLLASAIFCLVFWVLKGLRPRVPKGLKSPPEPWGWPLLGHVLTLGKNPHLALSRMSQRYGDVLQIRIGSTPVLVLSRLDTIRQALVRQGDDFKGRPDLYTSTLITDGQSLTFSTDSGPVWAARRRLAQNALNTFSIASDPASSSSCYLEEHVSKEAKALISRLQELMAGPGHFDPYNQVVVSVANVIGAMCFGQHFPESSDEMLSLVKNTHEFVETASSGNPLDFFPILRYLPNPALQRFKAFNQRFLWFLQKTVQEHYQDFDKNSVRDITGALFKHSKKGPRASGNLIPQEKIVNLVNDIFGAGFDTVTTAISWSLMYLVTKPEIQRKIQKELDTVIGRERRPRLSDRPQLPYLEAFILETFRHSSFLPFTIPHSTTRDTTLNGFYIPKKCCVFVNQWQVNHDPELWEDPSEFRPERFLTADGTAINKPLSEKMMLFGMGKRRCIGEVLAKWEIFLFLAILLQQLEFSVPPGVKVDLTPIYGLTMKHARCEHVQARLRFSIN
# [26] = target: Cytochrome P450 2C9 (Homo sapiens, UniProt P11712); assay: Inhibition of CYP2C9 in human liver microsomes using […] preincubated with compound for 5 mins followed by substrate addition and measured after 120 mins in presence of NADPH by LC-MS/MS analysis; format: ADME, Microsome
# [27] = target: Cytochrome P450 2D6 (Homo sapiens, UniProt P10635); assay: Inhibition of CYP2D6 in human liver microsomes […] preincubated with compound for 5 mins followed by substrate addition and measured after 120 mins in presence of NADPH by LC-MS/MS analysis; format: ADME, Microsome
# [28] = target: Cytochrome P450 3A4 (Homo sapiens, UniProt P08684); assay: Inhibition of CYP3A4 in human liver microsomes […] preincubated with compound for 5 mins followed by substrate addition and measured after 120 mins in presence of NADPH by LC-MS/MS analysis; format: ADME, Microsome
# [29] = test system: Staphylococcus aureus; assay: Antibacterial activity against methicillin-sensitive Staphylococcus aureus assessed as inhibition of bacterial growth incubated for 16 to 20 hrs by CLSI based broth liquid microdilution method; format: functional; settings: time 16-20 hrs
# [30] = test system: Staphylococcus aureus; assay: Antibacterial activity against linezolid-resistant Staphylococcus aureus assessed as inhibition of bacterial growth incubated for 16 to 20 hrs by CLSI based broth liquid microdilution method; format: functional; settings: time 16-20 hrs
# [31] = test system: Enterococcus faecalis; assay: Antibacterial activity against linezolid-resistant Enterococcus faecalis assessed as inhibition of bacterial growth incubated for 16 to 20 hrs by CLSI based broth liquid microdilution method; format: functional; settings: time 16-20 hrs
# [32] = Aqueous solubility of compound at pH 2 by LC-MS/MS analysis; format: physicochemical; settings: buffer
# [33] = Bioavailability in Sprague-Dawley rat at 10 mg/kg, IG measured upto 24 hrs by LC-MS analysis; format: ADME, organism-based; settings: in vivo, po
# Sequence of Cytochrome P450 3A4 (P08684 whole entry): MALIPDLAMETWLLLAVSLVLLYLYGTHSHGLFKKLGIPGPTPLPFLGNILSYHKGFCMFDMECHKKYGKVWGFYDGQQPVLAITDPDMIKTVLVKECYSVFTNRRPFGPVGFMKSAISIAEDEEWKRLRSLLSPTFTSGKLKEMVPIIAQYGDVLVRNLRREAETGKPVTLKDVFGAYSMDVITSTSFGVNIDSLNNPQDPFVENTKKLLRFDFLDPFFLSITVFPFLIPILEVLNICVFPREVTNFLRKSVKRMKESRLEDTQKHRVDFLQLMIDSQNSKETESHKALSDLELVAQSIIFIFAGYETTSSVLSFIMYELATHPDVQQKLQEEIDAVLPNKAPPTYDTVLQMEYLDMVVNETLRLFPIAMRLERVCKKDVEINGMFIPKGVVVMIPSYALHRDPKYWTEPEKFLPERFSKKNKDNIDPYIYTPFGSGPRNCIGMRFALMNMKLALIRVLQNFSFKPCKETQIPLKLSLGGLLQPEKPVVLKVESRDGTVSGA
# Sequence of Cytochrome P450 2C9 (P11712 whole entry): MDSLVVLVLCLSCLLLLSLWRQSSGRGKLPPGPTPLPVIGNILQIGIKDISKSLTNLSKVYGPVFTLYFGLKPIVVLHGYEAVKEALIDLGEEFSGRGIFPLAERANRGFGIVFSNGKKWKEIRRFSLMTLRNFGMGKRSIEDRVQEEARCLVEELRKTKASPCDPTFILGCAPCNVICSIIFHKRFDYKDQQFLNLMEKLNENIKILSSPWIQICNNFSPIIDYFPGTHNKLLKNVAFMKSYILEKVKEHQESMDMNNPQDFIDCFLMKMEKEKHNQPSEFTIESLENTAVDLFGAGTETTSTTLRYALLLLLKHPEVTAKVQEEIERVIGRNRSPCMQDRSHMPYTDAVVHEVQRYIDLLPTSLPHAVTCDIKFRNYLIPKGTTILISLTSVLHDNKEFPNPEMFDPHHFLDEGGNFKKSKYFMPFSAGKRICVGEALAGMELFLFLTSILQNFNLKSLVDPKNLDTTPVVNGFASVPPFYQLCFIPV
# Sequence of Cytochrome P450 2D6 (P10635 whole entry): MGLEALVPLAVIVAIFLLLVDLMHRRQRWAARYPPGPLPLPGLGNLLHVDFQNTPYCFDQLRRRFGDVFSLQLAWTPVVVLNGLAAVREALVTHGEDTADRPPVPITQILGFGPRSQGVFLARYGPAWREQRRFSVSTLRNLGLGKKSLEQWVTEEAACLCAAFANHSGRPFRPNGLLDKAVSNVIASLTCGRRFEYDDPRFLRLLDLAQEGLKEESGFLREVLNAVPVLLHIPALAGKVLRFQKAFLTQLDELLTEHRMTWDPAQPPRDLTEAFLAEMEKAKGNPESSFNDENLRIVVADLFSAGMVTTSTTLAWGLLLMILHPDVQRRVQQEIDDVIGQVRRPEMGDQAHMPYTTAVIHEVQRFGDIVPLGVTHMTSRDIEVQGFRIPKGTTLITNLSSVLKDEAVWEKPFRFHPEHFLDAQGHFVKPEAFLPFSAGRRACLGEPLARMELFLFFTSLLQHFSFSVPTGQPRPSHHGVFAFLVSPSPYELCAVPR
Structure (SMILES),half-life [1],half-life [2],microsomal CLint [3],remaining at 2 h [4],remaining at 2 h [5],remaining at 2 h [6],remaining at 1 h [7],remaining at 1 h [8],remaining at 1 h [9],remaining at 1 h [10],fraction unbound at 6 h [12],fraction unbound at 6 h [13],half-life [14],clearance [15],half-life [16],Tmax [17],AUC(0-t) at 24 h [18],AUC(0-t) at 24 h [19],Vd [20],half-life [21],also measured
CC(=O)NC[C@H]1CN(c2ccc(N3CCOCC3)c(F)c2)C(=O)O1 [LINEZOLID],51.8 h,10.6 h,2.18 µL/min/mg,102%,99.4%,92.3%,110%,110%,107%,105%,0.639,0.721,0.41 h,24.7 mL/min/kg,1.08 h,0.5 h,13000 ng·h/mL,794 ng·h/mL,0.56 L/kg,0.8 h,remaining at 1 h ([11]; read-out: Stability): 110%; Cmax [22]: 10000 ng/mL; AUC(0-t) at 24 h [23]: 24000 ng·h/mL; IC50 at 48 h [24]: > 30 µM; IC50 [25]: > 30 µM; IC50 [26]: > 30 µM; IC50 [27]: > 30 µM; IC50 [28]: > 30 µM
O=C1O[C@@H](CO)CN1c1ccc(-c2ccc(/C=N/N3CCOCC3)nc2)c(F)c1,7.78 h,12.2 h,2.02 µL/min/mg,66.2%,93.3%,96%,98.6%,115%,103%,98.3%,0.041,0.117,0.8 h,14 mL/min/kg,1.49 h,1.33 h,8310 ng·h/mL,2640 ng·h/mL,0.87 L/kg,2.85 h,MIC [29]: 0.06 µg/mL; MIC [30]: 0.125 µg/mL; MIC [31]: 0.5 µg/mL; Stability ([11]; 1 h): 125%; solubility [32]: 52.6 µM; bioavailability [33]: 68.1%; Cmax [22]: 4810 ng/mL; AUC(0-t) at 24 h [23]: 29300 ng·h/mL; IC50 at 48 h [24]: > 30 µM; IC50 [25]: > 30 µM; IC50 [26]: > 30 µM; IC50 [27]: > 30 µM; IC50 [28]: > 30 µM

# — ChEMBL document CHEMBL5550154, “Novel biaryloxazolidinone derivatives with broad-spectrum antibacterial activity, favorable drug-like profiles and in vivo efficacy against linezolid-resistant Staphylococcusaureus” (Eur J Med Chem, 2024)
